Read-outs that look alike come from different tables or passages of the source.
Key:
[1] = set-up: species or system patients; details: human, in vivo; for burden estimate from dry mouth / overall burden estimate: 85 days
Excerpt: The systems and methods of the present invention are now described with reference to specific examples of clinical trials and the adverse event data generated in connection therewith, and stored in a database. […] 2015]. DOI: 10.1177/1756287215589250) with a β3 adrenergic receptor agonist and an anti-muscarinic agent. General names for each drug treatment are used herein.
First described is the data analysis involved with implementation of the invention. More particularly, the application of the methodology involves the use of a clinical study database with individual data entries for TEAEs per patient per day. The presence of TEAEs may be plotted against the study day, such that if a patient reported a TEAE from Days 3 to 5, this TEAE was considered present on Days 3, 4 and 5. Also, if an end date was not present in the database, or a TEAE was ongoing, the last study day of the patient was taken as the end day of the TEAE. […] The addition of coloring that corresponds with TEAE severity allows easy discrimination of TEAEs of differing severity in the graph.
In order to visually represent the safety/TEAE burden experienced by a patient, varied weighting may be applied to TEAE severity in each arm in a consistent manner. The graph may, therefore, display the number of weighted TEAEs per day. For purposes of example, in the graphs described herein, TEAEs that were mild, moderate, severe, life threatening/disabling and related to death were weighted to represent 1×, 2×, 3×, 4× and 5×TEAEs per event per day, respectively. Further, the investigator may indicate the seriousness of the TEAE.
An area under the curve (AUC) analysis can be performed in conjunction with the burden of therapy methodology to quantitatively compare potential differences in mean events per day between study arms. This can be performed in conjunction with weighting of events if required. An AUC analysis may be useful in studies that have a similar presence of events in each arm, as an estimate of the mean weighted events per day for each arm can be compared using statistical tools.
The AUC for each individual subject can also be calculated. The AUC represents the total burden that an individual subject experienced during the trial. The AUC is the sum of the burden, for all burdens of an individual subject. Thus, the AUC of subject i is burdeni=Σj=1^t^i burdenij, where ti is the total number of study days of subject i.
The AUC can be used in an analysis of covariance (ANCOVA) as a response variable and the impact of different covariates and factors on the AUC can be investigated. The obvious factor is treatment, but one can include medication history, age, gender or BMI as […] in the ANCOVA analysis.
To analyze the profiles with an ANCOVA, the AUC for dry mouth of each subject was derived. The AUC was then used as the dependent variable in the model. […] It is likely that a negative past experience with anti-muscarinics could influence the recording of a specific adverse event like dry-mouth. In the statistical (ANCOVA) model, prior anti-muscarinics dissatisfaction was added next to treatment as explanatory variable. […] Prior anti-muscarinic dissatisfaction had also a low p-value (p=0.007), meaning that subjects with a negative experience using anti muscarinics also reported more dry mouths. In this study, dry mouth was reported by 29 patients (3.1%) in the adrenergic agonist group and 54 patients (5.8%) in the antimuscarinic group (Batista et al., 2015). An analysis of patients who reported dry mouth was performed to investigate whether there was a difference between arms and approximately 1.5-2.0% of patients reported dry mouth in the antimuscarinic group from Days 17-85 (FIGS. 3B and 4B).

[2] = cited from earlier work
[3] = overactive bladder study, whole study

patients reporting dry mouth per day [1] | burden estimate from dry mouth [1] | overall burden estimate [1] | Structure (SMILES) | difference in the proportion of patients with TEAEs ([1]; 10 day) | difference in the proportion of patients with TEAEs ([1]; 85 day) | number of patients reporting dry mouth ([2]; human, in vivo) | patients reporting dry mouth (%) ([2]; human, in vivo) | patients with TEAEs (%) [2, 3] | total number of patients with TEAEs [2, 3]
1.5-2.0% | 5.7 | 19.6 | O=C(O[C@H]1CN2CCC1CC2)N1CCc2ccccc2[C@@H]1c1ccccc1 [antimuscarinic agent, solifenacin] | 0.1% | 5% | – | – | – | –
– | 2.9 | 15.1 | Nc1nc(CC(=O)Nc2ccc(CCNC[C@H](O)c3ccccc3)cc2)cs1 [β3 adrenergic receptor agonist, mirabegron] | – | – | 29 patients | 3.1% | 29.3% | 274
